# From paper PMC11133627, “CATH-2-derived antimicrobial peptide inhibits multidrug-resistant Escherichia coli infection in chickens” (Frontiers in Cellular and Infection Microbiology, 2024)
# Ends that are not written are not given here.
# What was measured:
# [1] = test system: E. coli clinical isolate E14; test: Drug-sensitivity test (paper disc, inhibition zone); type: cell-based, Escherichia coli; parameters: key to Drug sensitivity of E. coli E14: R: resistant strains; I: intermediate strains; S: sensitive strains; details: for Drug sensitivity of E. coli E14: 6 mm antibiotic paper on LB agar, 1×10^6 CFU/mL, 24h 37°C, inhibition zone diameter
# Procedure: (§1) E. coli (ATCC 8739) and clinical isolates of E. coli (E1, E9, E12, E14, E16, and E18) were stored at the Animal Biochemical Laboratory of Shanxi Agricultural University and grown in Luria-Bertani (LB) broth as previously reported ([Zhao et al., 2021]). Circular 6 mm paper pieces were prepared with filter paper and autoclaved for sterilization. […] Then, 0.5 mL of antibiotic solution was added to 100 sterilized papers. Subsequently, the paper pieces were fully infiltrated and dried in a vacuum drying oven to produce antibiotic susceptibility papers. The E. coli strain was retrieved from the -20°C freezer and activated by incubating it on LB agar media at 37°C for 24h. Individual colonies were selected and transferred to LB liquid media. Thereafter, the E. coli suspension was obtained by shaking at 37°C and 160 r/min for 18h. The obtained suspension was centrifuged at 5000 r/min for 5min, after which the supernatant was discarded, and the bacteria were resuspended in fresh medium to a concentration of 1×10^6 CFU/mL. Two hundred microliters of the bacterial suspension mentioned above was spread evenly onto LB agar medium. Then, the antibiotic susceptibility papers were placed on the medium surface using sterile tweezers. After 24h of incubation at 37°C, the diameter of the inhibition zone was measured to determine the susceptibility of E. coli to antibiotics.
# [2] = test system: 6 E. coli strains (E1, E9, E12, E14, E16, E18); type: cell-based, Escherichia coli; details: paper disc test
# Procedure: as §1
# [3] = test system: E. coli clinical isolate E18; test: Drug-sensitivity test (paper disc, inhibition zone); type: cell-based, Escherichia coli; parameters: key: R: resistant strains; I: intermediate strains; S: sensitive strains; details: 6 mm antibiotic paper on LB agar, 1×10^6 CFU/mL, 24h 37°C, inhibition zone diameter
# Procedure: as §1
# [4] = test system: E. coli (ATCC 8739); test: as above; type: cell-based, Escherichia coli; parameters: key: R: resistant strains; I: intermediate strains; S: sensitive strains; details: 6 mm antibiotic paper on LB agar, 1×10^6 CFU/mL, 24h 37°C, inhibition zone diameter
# Procedure: as §1
# [5] = test system: E. coli clinical isolate E9; test: as above; type: cell-based, Escherichia coli; parameters: key: R: resistant strains; I: intermediate strains; S: sensitive strains; details: 6 mm antibiotic paper on LB agar, 1×10^6 CFU/mL, 24h 37°C, inhibition zone diameter
# Procedure: as §1
# [6] = test system: E. coli clinical isolate E12; test: as above; type: cell-based, Escherichia coli; parameters: key to Drug sensitivity of E. coli E12: R: resistant strains; I: intermediate strains; S: sensitive strains; details: for Drug sensitivity of E. coli E12: 6 mm antibiotic paper on LB agar, 1×10^6 CFU/mL, 24h 37°C, inhibition zone diameter
# Procedure: as §1
# [7] = test system: E. coli clinical isolate E16; test: as above; type: cell-based, Escherichia coli; parameters: key to Drug sensitivity of E. coli E16: R: resistant strains; I: intermediate strains; S: sensitive strains; details: for Drug sensitivity of E. coli E16: 6 mm antibiotic paper on LB agar, 1×10^6 CFU/mL, 24h 37°C, inhibition zone diameter
# Procedure: as §1
# [8] = test system: E. coli clinical isolate E1; type: cell-based; parameters: key: R: resistant strains; I: intermediate strains; S: sensitive strains; details: 6 mm antibiotic paper on LB agar, 1×10^6 CFU/mL, 24h 37°C, inhibition zone diameter
# Procedure: as §1
# [9] = test system: E. coli clinical isolate E14; test: microbe, parasite or virus in culture; type: cell-based, Escherichia coli
# Procedure: (§2) The minimum inhibitory concentrations (MICs) of the AMPs were determined using the microbroth dilution technique ([van Harten et al., 2021]). One hundred microliters of bacterial suspension at a concentration of 1×10^6 CFU/mL was pipetted into a 96-well plate. Then, 100 μL of AMP or gentamicin at various concentrations was added, while the bacterial suspension without AMPs and blank medium were used as controls.
# [10] = test system: E. coli clinical isolate E12; test: microbe, parasite or virus in culture; type: cell-based, Escherichia coli
# Procedure: as §2
# [11] = test system: E. coli clinical isolate E16; test: microbe, parasite or virus in culture; type: cell-based, Escherichia coli
# Procedure: as §2
# [12] = test system: E. coli clinical isolate E18; test: microbe, parasite or virus in culture; type: cell-based, Escherichia coli
# Procedure: as §2
# [13] = test system: E. coli (ATCC 8739); test: microbe, parasite or virus in culture; type: cell-based, Escherichia coli
# Procedure: as §2
# [14] = test system: E. coli clinical isolate E9; test: microbe, parasite or virus in culture; type: cell-based, Escherichia coli
# Procedure: as §2
# [15] = test system: E. coli (ATCC 8739); test: Sterilization kinetics assay; type: cell-based, Escherichia coli; details: 8 μg/mL, 1×10^5 CFU/mL, 37°C, colony count
# Procedure: The sterilization kinetics assay was performed following previous methods ([Peng et al., 2022]; [Yong Fang et al., 2023]). […] At each time point, 10 μL of sample was diluted in 1 mL of PBS, and 100 μL of the dilution was plated on LB agar plates. After incubating at 37°C for 24h, the number of colonies was counted.
# [16] = test system: E. coli clinical isolate E1; test: microbe, parasite or virus in culture
# Procedure: as §2
# [17] = test system: E. coli (E16); test: Chicken infection with MDR E. coli; type: in vivo
# Procedure: Except for the blank control group injected with 500 μL of normal saline, the other four groups were injected with 500 μL of 3×10^9 CFU/mL E. coli (E16) into the pectoral muscles. […] Clinical symptoms and were observed and documented for the chickens in each group after infection. After 72h, the chickens in each group were euthanized and examined for internal organ damage. Paraffin sections were prepared for microscopic examination of pathological changes. Under sterile conditions, 1 g samples of heart, liver, and spleen were collected, and each sample was supplemented with 20 mL of sterile PBS. After thorough grinding, the sample was diluted to the appropriate multiple, and 100 μL of the diluent was spread onto LB agar medium. The plates were incubated for 24h, after which the colonies were counted.
# [18] = test system: E. coli strains (ATCC 8739 and MDR clinical isolates); type: cell-based, Escherichia coli; details: ATCC 8739, 18 h
# Procedure: as §2
# [19] = test system: E. coli (ATCC 8739); type: cell-based, Escherichia coli; details: ATCC 8739, 1 h
# Procedure: The MICs of the AMPs against E. coli (ATCC 8739) at different temperatures and physiological salt concentrations were evaluated. The thermal stability of the AMPs was assessed by incubating them at a concentration of 500 μg/mL for 1h at 0, 37, and 100°C, using untreated AMPs as a control. The salt ion stability of the AMPs was determined by incubating them at a concentration of 500 μg/mL in solutions of NaCl (150 mM), KCl (4.5 mM), MgCl2 (1 mM), and CaCl2 (2.5 mM) for 1h, using untreated samples as controls. The changes in the MICs of the AMPs were assessed following these experimental procedures.
compound,measurement,setting,value
penicillin,Drug sensitivity of E. coli E14,[1],R
same,Resistance of the 6 clinical E. coli strains (in words),[2],resistant
same,Drug sensitivity of E. coli E18,[3],R
same,Drug sensitivity of E. coli ATCC 8739,[4],S
same,Drug sensitivity of E. coli E9,[5],R
same,Drug sensitivity of E. coli E12,[6],R
same,Drug sensitivity of E. coli E16,[7],R
same,Drug sensitivity of E. coli E1,[8],R
"CNC(C)C1CCC(N)C(OC2C(N)CC(N)C(OC3OCC(C)(O)C(NC)C3O)C2O)O1 (stereo not shown) [gentamicin, reference compound]",MBC,"[9]; Escherichia coli, 50 μL from fully inhibited wells plated on LB agar, colonies counted after 24h 37°C, read-out: MBC against E. coli E14",4 µg/mL
same,MIC,"[9]; Escherichia coli, microbroth dilution, 1×10^6 CFU/mL, 37°C 18h, turbidity, read-out: MIC against E. coli E14",4 µg/mL
same,MBC,"[10]; Escherichia coli, 50 μL from fully inhibited wells plated on LB agar, colonies counted after 24h 37°C, read-out: MBC against E. coli E12",4 µg/mL
same,MIC,"[10]; Escherichia coli, microbroth dilution, 1×10^6 CFU/mL, 37°C 18h, turbidity, read-out: MIC against E. coli E12",4 µg/mL
same,MBC,"[11]; Escherichia coli, 50 μL from fully inhibited wells plated on LB agar, colonies counted after 24h 37°C, read-out: MBC against E. coli E16",4 µg/mL
same,MIC,"[11]; Escherichia coli, microbroth dilution, 1×10^6 CFU/mL, 37°C 18h, turbidity, read-out: MIC against E. coli E16",4 µg/mL
same,MBC,"[12]; Escherichia coli, 50 μL from fully inhibited wells plated on LB agar, colonies counted after 24h 37°C, read-out: MBC against E. coli E18",128 µg/mL
same,MIC,"[12]; Escherichia coli, microbroth dilution, 1×10^6 CFU/mL, 37°C 18h, turbidity, read-out: MIC against E. coli E18",64 µg/mL
same,MBC,"[13]; Escherichia coli, ATCC8739, 50 μL from fully inhibited wells plated on LB agar, colonies counted after 24h 37°C, read-out: MBC against E. coli ATCC 8739",8 µg/mL
same,MIC,"[13]; Escherichia coli, ATCC8739, microbroth dilution, 1×10^6 CFU/mL, 37°C 18h, turbidity, read-out: MIC against E. coli ATCC 8739",8 µg/mL
same,MBC,"[14]; Escherichia coli, 50 μL from fully inhibited wells plated on LB agar, colonies counted after 24h 37°C, read-out: MBC against E. coli E9",8 µg/mL
same,MIC,"[14]; Escherichia coli, microbroth dilution, 1×10^6 CFU/mL, 37°C 18h, turbidity, read-out: MIC against E. coli E9",8 µg/mL
same,Drug sensitivity of E. coli E14,[1],S
same,Drug sensitivity of E. coli E14 (in words),[1]; paper disc test,susceptible
same,Time for complete bacterial eradication,[15],≤ 60 min
same,MIC,"[16]; Escherichia coli, 18 h, read-out: MIC against E. coli E1",64 µg/mL
same,MBC,"[16]; Escherichia coli, 24 h, read-out: MBC against E. coli E1",64 µg/mL
same,Drug sensitivity of E. coli E18,[3],R
same,Drug sensitivity of E. coli ATCC 8739,[4],I
same,Drug sensitivity of E. coli E9,[5],I
same,3-day mortality rate,"[17]; 200 μg/mL, 500 μL into pectoral muscle 4h after 1.5×10^9 CFU E16",10%
same,"Bacterial loads in the heart, liver and spleen (in words)","[17]; after 3 days of infection, vs infected untreated",significantly reduced
same,"Organ lesions of heart, liver, intestine (in words)","[17]; autopsy, vs E. coli infection group",significant reduction in organ lesions
same,Drug sensitivity of E. coli E12,[6],S
same,Drug sensitivity of E. coli E12 (in words),[6]; paper disc test,susceptible
same,Drug sensitivity of E. coli E16,[7],S
same,Drug sensitivity of E. coli E16 (in words),[7]; paper disc test,susceptible
same,Drug sensitivity of E. coli E1,[8],R
CS(=O)(=O)c1ccc([C@@H](O)[C@@H](CF)NC(=O)C(Cl)Cl)cc1 [florfenicol],Drug sensitivity of E. coli E14,[1],R
same,Resistance of the 6 clinical E. coli strains (in words),[2],resistant
same,Drug sensitivity of E. coli E18,[3],R
same,Drug sensitivity of E. coli ATCC 8739,[4],S
same,Drug sensitivity of E. coli E9,[5],R
same,Drug sensitivity of E. coli E12,[6],R
same,Drug sensitivity of E. coli E16,[7],R
same,Drug sensitivity of E. coli E1,[8],R
RFGRFLRKIRRMRLK [C2-2],MIC against E. coli E14,"[9]; clinical isolate E14, 18 h",8 µg/mL
same,MBC against E. coli E14,"[9]; clinical isolate E14, 24 h",8 µg/mL
same,MIC against E. coli E12,"[10]; clinical isolate E12, 18 h",2 µg/mL
same,MBC against E. coli E12,"[10]; clinical isolate E12, 24 h",2 µg/mL
same,MIC against E. coli E16,"[11]; clinical isolate E16, 18 h",8 µg/mL
same,MBC against E. coli E16,"[11]; clinical isolate E16, 24 h",8 µg/mL
same,MIC against E. coli E18,"[12]; clinical isolate E18, 18 h",4 µg/mL
same,MBC against E. coli E18,"[12]; clinical isolate E18, 24 h",4 µg/mL
same,MIC against E. coli ATCC 8739,"[13]; ATCC 8739, 18 h",8 µg/mL
same,MBC against E. coli ATCC 8739,"[13]; ATCC 8739, 24 h",8 µg/mL
same,MIC against E. coli E9,"[14]; clinical isolate E9, 18 h",2 µg/mL
same,MBC against E. coli E9,"[14]; clinical isolate E9, 24 h",2 µg/mL
same,MBC against E. coli E1,"[16]; 50 μL from fully inhibited wells plated on LB agar, colonies counted after 24h 37°C",8 µg/mL
same,MIC against E. coli E1,"[16]; microbroth dilution, 1×10^6 CFU/mL, 37°C 18h, turbidity",4 µg/mL
same,MBC range over E. coli strains,[18],2 to 8 µg/mL
same,MIC range over E. coli strains,[18],2 to 8 µg/mL
same,"MIC against E. coli (ATCC 8739), Salt Stability CaCl2 (2.5 mM)",[19],4 µg/mL
same,"MIC against E. coli (ATCC 8739), Salt Stability KCl (4.5 mM)",[19],0.5 µg/mL
same,"MIC against E. coli (ATCC 8739), Salt Stability MgCl2 (1 mM)",[19],0.5 µg/mL
same,"MIC against E. coli (ATCC 8739), Salt Stability NaCl (150 mM)",[19],0.5 µg/mL
same,"MIC against E. coli (ATCC 8739), Thermal Stability 0°C",[19],8 µg/mL
same,"MIC against E. coli (ATCC 8739), Thermal Stability 37°C",[19],8 µg/mL
same,"MIC against E. coli (ATCC 8739), Thermal Stability 100°C",[19],8 µg/mL
